According to patent publication US9826740B2, “Synergistic fungicidal compositions and methods of use” (ZELAM LIMITED, priority 2010, dated 2017):
Where two headings read alike, the source gives them in different places.

What was measured:
Decay fungi = assay: Malt extract agar plate growth test, statements over all decay fungi tested; format: cell-based; conditions: Example 4, EC90, Antrodia xantha, Fomitopsis lilacino-gilva, Trametes versicolor
Protocol: (§1) The end points used were EC90 or EC50, the concentration producing 90% or 50% inhibition of growth or weight loss resulting from fungal growth. EC values were calculated by regression analysis of dose response data using the GraphPad Prism software package (GraphPad Software, Inc., 5755 Oberlin Drive #110, San Diego, Calif. 92121, USA). EC90 values are expressed in ppm and EC50 values are expressed in gai/m^3.
(§2) Decay fungi were grown on malt extract agar plates for 5 days at 25° C. in the presence of triadimefon alone or triadimenol alone (A), cyproconazole alone (B), and the pairs of mixtures shown in Table 2.
(§3) Further EC90 values were determined for this example in a standard manner.

[1] = system: Antrodia xantha (Brown rot); assay: Malt extract agar plate growth inhibition; format: cell-based; conditions: Example 4, 5 days at 25° C.
Protocol: (§4) The end points used were EC90 or EC50, the concentration producing 90% or 50% inhibition of growth or weight loss resulting from fungal growth. EC values were calculated by regression analysis of dose response data using the GraphPad Prism software package (GraphPad Software, Inc., 5755 Oberlin Drive #110, San Diego, Calif. 92121, USA). EC90 values are expressed in ppm and EC50 values are expressed in gai/m^3. […]

[2] = system: Fomitopsis lilacino-gilva (Brown rot); assay: Malt extract agar plate growth inhibition; format: cell-based; conditions: Example 4, 5 days at 25° C.
Protocol: as §1, §2

[3] = system: Trametes versicolor (White rot); assay: Malt extract agar plate growth inhibition; format: cell-based; conditions: Example 4, 5 days at 25° C.
Protocol: as §1, §2

[4] = system: Gloeophyllum abietinum (Brown rot); assay: Malt extract agar plate growth inhibition; format: cell-based; conditions: Example 5, 7 days growth
Protocol: as §4, §3

[5] = system: Poria placenta (Brown rot); assay: Malt extract agar plate growth inhibition; format: cell-based; conditions: Example 5, 5 days growth
Protocol: as §4, §3

[6] = system: Pycnoporus coccineus (White rot); assay: Malt extract agar plate growth inhibition; format: cell-based; conditions: Example 5, 4 days growth
Protocol: as §4, §3

[7] = system: Serpula lacrymans (Dry rot); assay: Malt extract agar plate growth inhibition; format: cell-based; conditions: Example 5, 5 days growth
Protocol: as §4, §3

[8] = system: Tyromyces palustris (Brown rot); assay: Malt extract agar plate growth inhibition; format: cell-based; conditions: Example 5, 4 days growth
Protocol: as §4, §3

Tyromyces palustris = assay: Rot jar test of glueline treated Pinus radiata plywood (AWPC 2007); conditions: rot jar after leaching
Protocol: (§5) Efficacy as a glueline fungicide was tested in plywood manufactured with phenol formaldehyde (PF), a typical resin used in engineered wood products. The wood type was Pinus radiata sapwood, which, like many softwoods, is rapidly degraded by decay organisms, if not protected. Five 3.2 mm rotary-peeled veneers were laid up with fungicide-containing PF resin at a typical commercial glue spread rate (250 g/m^2), cold pressed for 10 minutes then hot pressed for 12 minutes at 135° C. and […]. Test specimens (25 mm×25 mm×16 mm) were cut, then leached for 14 days according to EN 84 before conducting a three month “rot jar test” as specified by the Australasian Wood Preservation Committee (Laboratory Decay Test for Hazard Classes H3, H4 and H5, AWPC, 2007). Untreated controls contained no fungicide.
Plywood was manufactured following the procedure in Example 7 using triadimefon and triadimenol as the glueline fungicides and tested by the rot jar method after leaching. […]

Antrodia xantha = assay: as above; conditions: rot jar after leaching
Protocol: as §1, §5
(§6) Plywood was manufactured following the procedure in Example 7 using triadimefon and triadimenol as the glueline fungicides and tested by the rot jar method after leaching.
(§7) In order to examine the interaction between triadimefon and cyproconazole in the glueline a synergy trial was performed using plywood manufactured with fungicide-supplemented PF resin and the rot jar method described above. Six glueline rates (expressed as gai/m^3) of triadimefon alone, cyproconazole alone, triadimefon+cyproconazole (10:1) and triadimefon+cyproconazole (6:1) were used to establish EC50 values by regression analysis. Synergy was determined by the Wadley method as described above using the EC50 values.
(§8) Plywood 29 mm thick was manufactured from seven 4.3 mm rotary peeled Pinus radiata sapwood veneers using PF resin supplemented with various rates of triadimefon plus cyproconazole at a 10:1 ratio. […] The finished plywood was then sprayed with the same mixtures to cover the top and bottom faces of the plywood. Test specimens (25 mm×25 mm×29 mm) were cut, leached and tested by the rot jar method as described in Example 7.

[9] = system: Fomitopsis lilacino-gilva; assay: as above; conditions: rot jar after leaching
Protocol: as §1, §5, §6, §7, §8

[10] = cited from earlier work
[11] = system: human and yeast CYP51 (lanosterol-14α-demethylase); conditions: cited from earlier work
Coriolus versicolor = conditions: cited from earlier work
Chondrostereum purpureum = conditions: cited from earlier work
Trichoderma viride = conditions: cited from earlier work
[12] = pH 4; cited from earlier work
[13] = Example 8, glueline 250 gai/m3, PF plywood
[14] = Example 8, glueline 500 gai/m3, PF plywood
[15] = Example 8, glueline 1000 gai/m3, PF plywood
[16] = Example 8, glueline 2000 gai/m3, PF plywood

CC(C)(C)C(O)C(Oc1ccc(Cl)cc1)n1cncn1 (centres unmarked) [Triadimenol]
efficacy acting alone relative to triadimefon acting alone (Decay fungi): two to ten times more efficacious
EC90(obs) [1]: 1.12 ppm
EC90(obs) [2]: 0.37 ppm
EC90(obs) [3]: 0.15 ppm
EC90(obs) [4]: 1.80 ppm
EC90(obs) [5]: 0.84 ppm
EC90(obs) [6]: 0.10 ppm
EC90(obs) [7]: 42.8 ppm
EC90(obs) [8]: 1.26 ppm
Percentage weight loss (Tyromyces palustris; [13]): 9.6%
Percentage weight loss (Tyromyces palustris; [14]): 6.5%
Percentage weight loss (Tyromyces palustris; [15]): 0.9%
Percentage weight loss (Tyromyces palustris; [16]): 0.3%
Percentage weight loss (Antrodia xantha; [13]): 24.7%
Percentage weight loss (Antrodia xantha; [14]): 18.4%
Percentage weight loss (Antrodia xantha; [15]): 11.2%
Percentage weight loss (Antrodia xantha; [16]): 1.0%
Percentage weight loss [9, 13]: 9.0%
Percentage weight loss [9, 14]: 5.1%
Percentage weight loss [9, 15]: 1.6%
Percentage weight loss [9, 16]: 0.9%
Henry ([10]; triadimenol form A): 3 × 10^−6 P m^3 mo1^−1
Henry ([10]; triadimenol form B): 4 × 10^−6 P m^3 mo1^−1
relative selectivity for the fungal enzyme (in words) ([11]; based on the IC50 ratio human/yeast): moderately selective
ratio of IC50 values (human/yeast) against CYP51 ([11]; human CYP51 IC50 / yeast (Candida albicans) CYP51 IC50): 113
sensitivity of the fungus (in words) (Coriolus versicolor): sensitive
sensitivity of the fungus (in words) (Chondrostereum purpureum): sensitive
sensitivity of the fungus (in words) (Trichoderma viride): insensitive
Stability, hydrolysis DT50 [12]: DT50 >1 y pH 4,7,9
